Assay results taken from US10946053B2, “Composition containing mixed extract of mulberry and Poria cocos bark for preventing, improving or treating neurodegenerative disorders” (NeuroBo Pharmaceuticals, Inc., priority 2014, dated 2021).

What was measured:
human Tau [pS199] = experiment: Phosphorylated tau in neuronal cell line (ELISA), Aβ42 treated; format: cell-based; conditions: Donepezil 10 μM
Description: Phosphorylated tau levels were measured in order to confirm the inhibitory effect of crude herbal extracts on tau hyper-phosphorylation. […] The phosphorylated tau was measured using human Tau [pS199] enzyme-linked immunosorbent assay (ELISA) KIT purchased from Invitrogen.

[1] = test system: Scopolamine Induced Memory Impairment Model; experiment: Novel object recognition (NOR) task, scopolamine model; format: in vivo, ICR mice; conditions: extracts 100 mg/kg, Donepezil 1 mg/kg, test session
Description: (§1) Six-week-old ICR mice were used for the experiment and each experimental group consisted of 8 animals.
(§2) Normal animals were injected with the same amount of physiological saline. Behavioral studies were performed after 30 minutes of scopolamine administration.
(§3) The lyophilized drug, comparative drug and control drug were suspended in 3% HPMC aqueous solution, and all the drugs were prepared on the day of the experiment.
(§4) Inside a black box of 45 cm width, 45 cm length, 50 cm height, two plastic objects of the same size but different shapes were placed. The experimental animals were allowed to move freely for 8 minutes and the time spent on each object was measured (training session) 24 hours later, the experimental animals were placed in a box with one familiar object and one new object in the training session and the time spent in each object was measured (test session). The recorded values were calculated using the following equation (2), which is expressed as a recognition result of a new object. Recognition rate of new objects (%)=Time spent on new objects/(Time spent on new objects+Time spent on experienced objects)×100 [Equation 2]

Aβ Infusion Model (Aβ42) [2] = experiment: Novel object recognition (NOR) task, Aβ42 administration model; format: in vivo, ICR mice; conditions: extracts 100 mg/kg, Donepezil 1 mg/kg
Description: as §3, §4

Aβ Infusion Model (Aβ42) [3] = experiment: Y-maze test, Aβ42 administration model; format: in vivo, ICR mice; conditions: extracts 100 mg/kg, Donepezil 1 mg/kg
Description: (§5) Six-week-old ICR mice were used in the experiment. The animals were anesthetized, fixed in a stereotaxic apparatus (Stoelting) and injected with 3 μl of vehicle (artificial CSF) or Aβ42 for 6 minutes using a Hamilton micro syringe (fitted with a 26-gauge needle).
(§6) Animals treated with Aβ42 were randomly divided into experimental groups. From 2 days after administration of Aβ42, the experimental drug and the positive control drug were administered once a day for 11 days.
as §3
(§7) The Y-maze experiment was conducted to investigate the effect of short-term memory. The animals were placed on one arm of the Y-maze and allowed to move freely for 8 minutes. Spontaneous alternation and total number of entries were measured. When the animals were consecutively entered into three arms, they were defined as alternation entry, and the ratio was calculated by the following equation 1. Spontaneous alternation ratio (%)=[(number of changes)/(total number of arm entry−2)]×100 [Equation 1]

[4] = test system: Scopolamine Induced Memory Impairment Model; experiment: Y-maze test, scopolamine model; format: in vivo, ICR mice; conditions: extracts 100 mg/kg, Donepezil 1 mg/kg
Description: as §1, §2, §3, §7

Aβ Infusion Model (Aβ42) [5] = experiment: Passive avoidance task, Aβ42 administration model; format: in vivo, ICR mice; conditions: Aβ42 injected, once a day for 11 days, extracts 100 mg/kg, Donepezil 1 mg/kg
Description: as §5, §6, §3
Passive avoidance experiments were performed in two independently separated bright and dark square boxes. Bright areas (20×20×20 cm) were illuminated with 50 W incandescent lamps. Light and dark areas (20×20×20 cm) were spaced 1 cm apart and 2 mm stainless steel rods were installed. […]
(§8) Acquisition trials were conducted 24 hours later. […] The time that the animals entered the dark zone was measured.
(§9) After performing the acquisition trials and giving a 24-hour rest period, the experimental animals were placed in a bright area for measuring the retention trial and the time until entering the dark area was measured. […]

beta-nerve growth factor = experiment: NGF level measurement in nerve cell line (ELISA); format: cell-based, human; conditions: extracts 10 μg/ml, Donepezil 10 μM
Description: NGF levels were measured in order to determine the mechanism of cognitive improvement of the herbal mixed extracts. […] NGF levels were measured using a beta-nerve growth factor human enzyme-linked immunosorbent assay (ELISA) KIT purchased from Abcam.

[6] = test system: Scopolamine Induced Memory Impairment Model; experiment: Passive avoidance task, scopolamine induced memory impairment model; format: in vivo, ICR mice; conditions: scopolamine 1 mg/kg i.p., oral, extracts 100 mg/kg, Donepezil 1 mg/kg
Description: as §1, §2, §3
Passive avoidance experiments were performed in two independently separated bright and dark square boxes. Bright areas (20×20×20 cm) were illuminated with 50 W incandescent lamps. Light and dark areas (20×20×20 cm) were spaced 1 cm apart and 2 mm stainless steel rods were installed.
In the habituation phase, the two sections were separated by a guillotine door (5×5 cm), and the guillotine door was opened after 30 seconds after placing the experimental animals in the light section. The animals were allowed to freely navigate. When they reached the dark area, the guillotine door was closed and the animals were taken out after 3 seconds.
as §8, §9

[7] = test system: NeuN, a neural cell marker; experiment: Immunohistochemical staining with NeuN in hippocampus, Aβ infusion model (FIG. 1); format: in vivo, ICR mice
Description: as §5, §6
For immunohistochemical staining, the Aβ infusion animal described in Experimental Example 1-1 was perfused with 1×PBS (phosphate buffered saline), fixed with 4% paraformaldehyde, and brain was extracted. This was fixed in the same solution for one day and stored in a 30% sucrose solution and the solution was changed every two days until frozen at […] After that, brain tissue was frozen sufficiently at −20° C. by dropping OCT (optimal cutting temperature) compound in a cryostat, and then made into a 30 μm-thick section, and stored at 4° C. in a preservative solution. Immunohistochemical staining was performed with the hippocampus portion. […]

COc1cc2c(cc1OC)C(=O)C(CC1CCN(Cc3ccccc3)CC1)C2 (stereo not shown) [Donepezil]
inhibitory effect on tau phosphorylation, in words (human Tau [pS199]; SH-SY5Y cells, Aβ42): did not show any inhibitory effect | Phosphorus tau pg/g protein (human Tau [pS199]; differentiated SH-SY5Y cells, Aβ42 48 hours, extracts 10 μg/ml): 1699 pg/g protein | Familiar object recognition time [1]: 7.9 | New object recognition time [1]: 12.9 | Total object recognition time [1]: 20.8 | Total object recognition on time (Aβ Infusion Model (Aβ42) [2]): 26.8 | spontaneous alternation (%) (Aβ Infusion Model (Aβ42) [3]): 70.5% | Total number of entries (Aβ Infusion Model (Aβ42) [3]; 8 minutes): 61 | True enter (Aβ Infusion Model (Aβ42) [3]; 8 minutes): 43 | spontaneous alternation (%) [4]: 67.2% | Total number of entries ([4]; 8 minutes): 64 | True enter ([4]; 8 minutes): 43 | Acquisition time (Aβ Infusion Model (Aβ42) [5]; acquisition trial): 78.4 | Retention time (Aβ Infusion Model (Aβ42) [5]; retention trial): 244.2 | effect of promoting NGF production in nerve cell line, in words (beta-nerve growth factor; SH-SY5Y cells): did not show the effect of promoting NGF production | NGF (pg/g protein) (beta-nerve growth factor; differentiated SH-SY5Y cells): 421 pg/g protein | Retention time ([6]; retention trial 24 h after acquisition): 243.5 | Acquisition time ([6]; time to enter dark area, acquisition trial): 77.4 | NeuN expression / neuroprotective effect (FIG. 1), in words [7]: failed to show neuroprotective effects
